Reference: patent US5880095A, “Cholesteryl ester transfer protein inhibitor peptides and prophylactic and therapeutic anti-arteriosclerosis agents” (LG Chemical Ltd., priority 1994, dated 1999)
Read-outs that look alike come from different tables or passages of the source. No end group written: not given here.

Experiments:
[1] = biological target: T1, pure CETP separated from human blood plasma (Homo sapiens, UniProt P11597); assay: Determination of CETP inhibitory activity (CE transfer from [3H]-HDL to LDL), pure CETP as CETP source; assay type: biochemical; conditions: for inhibition at 7 µM: final conc. 7 μM; for inhibition at 9 µM: final conc. 9 μM
T1 construct: Pure CETP was separated from human blood plasma in accordance with the method of Hesler et al; from tissue; host or cells: human blood plasma
T1 sequence (P11597 18-493): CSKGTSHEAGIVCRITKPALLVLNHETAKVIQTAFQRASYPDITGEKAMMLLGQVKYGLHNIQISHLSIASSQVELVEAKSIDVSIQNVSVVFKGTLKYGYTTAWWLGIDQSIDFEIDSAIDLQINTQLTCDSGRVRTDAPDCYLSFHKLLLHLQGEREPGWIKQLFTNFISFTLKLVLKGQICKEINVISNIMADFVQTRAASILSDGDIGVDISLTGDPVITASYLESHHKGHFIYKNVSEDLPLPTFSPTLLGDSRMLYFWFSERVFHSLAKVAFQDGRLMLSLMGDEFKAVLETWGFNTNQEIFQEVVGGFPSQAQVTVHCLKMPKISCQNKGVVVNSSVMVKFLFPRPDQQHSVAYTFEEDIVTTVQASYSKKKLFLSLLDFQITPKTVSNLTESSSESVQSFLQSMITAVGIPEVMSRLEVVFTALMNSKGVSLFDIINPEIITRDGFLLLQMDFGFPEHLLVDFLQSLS
Method: (§1) LDL and [^3 H]-cholesteryl oleate-labelled HDL were synthesized in accordance with the method of Morton et al.(see, J. Biol. Chem., 256, 11992-11995(1981)) and then separated using an ultracentrifuge(Beckman XL 70). LDL and [^3 H]-HDL, thus prepared, were used as a CE-receptor and a CE-donor, respectively.
(§2) Pure CETP was separated from human blood plasma in accordance with the method of Hesler et al.(see, J. Biol. Chem., 262, 2275-2282(1987)) and used as a CETP source.
(§3) 0.3 ml of LDL, 0.05 ml of [^3 H]-HDL and 0.05 ml of the CETP source, which were prepared above, and 0.05 ml of a CETP inhibitor were added into a 1.5 ml tube and reacted at 37° C. for 3 hours.
(§4) When the reaction was finished, LDL was precipitated in accordance with the method of Morton et al.(see, Biochim. Biophys. Acta, 663, 350-355(1981)). The amount of the isotope transferred to LDL was determined with a liquid scintillation counter(Packard Tricarb 1600 TR) using a part of the supernatant, and the activity of CETP was calculated therefrom.
(§5) The inhibitory activity of the CETP inhibitor was calculated from the CETP activities of the experimental group, in which the CETP inhibitor was added, and that of control group, in which no CETP inhibitor was added, as follows: [formula]

[2] = biological target: T2, CETP (human blood plasma as CETP source) (Homo sapiens, UniProt P11597); assay: Determination of CETP inhibitory activity, human blood plasma itself as CETP source; assay type: biochemical
T2 construct: human blood plasma itself was used as the CETP source; from tissue; host or cells: human blood plasma (used as such)
T2 sequence (P11597 18-493): T1 sequence (P11597 18-493)
Method: as §1, §3, §4, §5
Further, the same procedures as in the Reference Example, except that human blood plasma itself was used as the CETP source, were repeated to determine CETP inhibitory activity of pure 3 kDa peptide.
CETP inhibitory activities of peptides P28, P10, P18, P24, P20 and P14 were determined in accordance with the method of Reference Example 1 using pure CETP or human blood plasma as a CETP source. To exclude possible nonspecific inhibition, a 2 kDa soluble peptide having an optional amino acid sequence was synthesized, and CETP inhibitory activity thereof was determined in a similar manner(control group).

CETP = biological target: T3, CETP (Homo sapiens, UniProt P11597); assay: CETP inhibitory activity of Peptide P28 according to the substrate (CE-receptor VLDL, LDL, HDL or LDLR); assay type: biochemical; conditions: final concentration 2 μM
T3 construct: Pure CETP was separated from human blood plasma in accordance with the method of Hesler et al; from tissue; host or cells: human blood plasma
T3 sequence (P11597 18-493): T1 sequence (P11597 18-493)
Method: as §1, §2, §3, §4, §5
In order to identify the inhibitory mechanism of Peptide P28 in blood, CETP inhibitory activity of Peptide P28 was determined in accordance with the method of Reference Example 1, using VLDL, LDL, HDL or re-synthesized LDL(LDLR) as a CE-receptor. LDLR was synthesized from LDL obtained in Reference Example 1 by the method of Morton et al.(see, J. Biol. Chem., 256, 11992-11995(1981)). The LDL was delipidated with chloroform and subjected to a gel chromatography to obtain ApoB100 protein. Phosphatidylcholine and cholesteryl oleate was thoroughly mixed, dried using nitrogen gas, and ApoB100 protein obtained above was added thereto. The mixture was reacted with stirring, dialyzed against tris buffer, and subjected to a gel chromatography to obtain LDLR.

[3] = tested on: Human fibroblast cell line(A431, ATCC CRL 1555); assay: Toxicity test on cultured cells; assay type: cell-based; conditions: 10% (wt/vol) peptide, 72 hours, DMEM with 10% FBS, compared with control without peptide
Method: Human fibroblast cell line(A431, ATCC CRL 1555) was cultured on DMEM medium containing 10% fetal bovine serum(FBS), with the addition of 10% (wt/vol) Peptide P28, P18, P10, P24, P20 or P14, for 72 hours.

[4] = final conc. of peptide 2 μM, CETP source human plasma, P28' and P13 produced in E. coli, read-out: Inhibitory Activity
[5] = final conc. of peptide 2 μM, CETP source pure CETP, synthesized peptides
[6] = alanine variants of P10, CETP source not given
[7] = conc. of inhibitor 2 μM, CETP source human plasma, peptides expressed in E. coli, read-out: Inhibitory Activity (Mean ± SD)

## EDTSPADKMQ [Variant F]
[1]; final conc. 6 μM, alanine variants of P10, CETP source not given
  inhibition at 6 µM: 29%

## EDTSPEDKMQDYVKQATRTAQDALTSVK [Peptide P28]
[1]; 1 nM, pure CETP separated from human blood plasma, read-out: CETP inhibitory activity (FIG. 4, curve A)
  inhibition at 0.001 µM: ~100%
[2]; 1 nM, human blood plasma itself as CETP source, read-out: CETP inhibitory activity (FIG. 4, curve B)
  inhibition at 0.001 µM: ~50%
CETP; CE-receptor LDL, read-out: inhibition of the transfer of CE from HDL to LDL
  inhibition at 2 µM: 50%
CETP; CE-receptor VLDL, read-out: inhibition of the transfer of CE from HDL to VLDL
  inhibition at 2 µM: ~10%
CETP; CE-receptor re-synthesized LDL (LDLR), read-out: inhibition of the transfer of CE from HDL to LDLR
  inhibition at 2 µM: 55%

## EDTSPEDKMQ [Peptide P10]
[1]; final conc. of peptide 2 μM, CETP source pure CETP, synthesized peptides, read-out: Inhibitory Activity (Mean ± S.D.)
  inhibition at 2 µM: 100 ± 2%
[2]; [4]
  inhibition at 2 µM: 45 ± 2.3%
[2]; final conc. of peptide 2 μM, CETP source human plasma, synthesized peptides, read-out: Inhibitory Activity (Mean ± S.D.)
  inhibition at 2 µM: 50 ± 4.5%
[3]
  change in growth condition and morphology of cultured cells: no change

## EDTSLLDKMQDYVKQATR [Peptide P18]
[1]; [5]
  Inhibitory Activity (Mean ± S.D.): 90 ± 3.5%
[2]; final conc. of peptide 2 μM, CETP source human plasma, synthesized peptides
  Inhibitory Activity (Mean ± S.D.): 40 ± 5.5%
[3]
  change in growth condition and morphology of cultured cells: no change

## ADTSPEDKMQ [Variant A]
[1]; [6]
  inhibition at 7 µM: -12%

## EDTSPEDKMA [Variant J]
[1]; [6]
  inhibition at 7 µM: 41%

## EDTSPEDKMQDYVKQATRTA [Peptide P20]
[1]; [5]
  Inhibitory Activity (Mean ± S.D.): 90 ± 1.5%
[2]; [7]
  inhibition at 2 µM: 45 ± 2.2%
[3]
  change in growth condition and morphology of cultured cells: no change

## SEAEDASLLSFMQ [Peptide P13]
[2]; [4]
  inhibition at 2 µM: 34 ± 2.9%

## EDTSPEDAMQ [Variant H]
[1]; final conc. 5 μM, alanine variants of P10, CETP source not given
  inhibition at 5 µM: 5%

## EDTSPEDKMQDYVK [Peptide P14]
[1]; [5]
  Inhibitory Activity (Mean ± S.D.): 50 ± 3.5%
[2]; [7]
  inhibition at 2 µM: 15 ± 1.5%
[3]
  change in growth condition and morphology of cultured cells: no change

## EDTSPEAKMQ [Variant G]
[1]; final conc. 2 μM, alanine variants of P10, CETP source not given, read-out: CETP inhibitory activity
  inhibition at 2 µM: -3%

## EDTSPEDKAQ [Variant I]
[1]; [6]
  inhibition at 9 µM: 69%

## EDASPEDKMQ [Variant C]
[1]; final conc. 8 μM, alanine variants of P10, CETP source not given
  inhibition at 8 µM: -6%

## EDTSAEDKMQ [Variant E]
[1]; [6]
  inhibition at 9 µM: -6%

## EATSPEDKMQ [Variant B]
[1]; [6]
  inhibition at 7 µM: -15%

## EDTSPEDKMQDYVKQATRTAQDAL [Peptide P24]
[1]; [5]
  Inhibitory Activity (Mean ± S.D.): 100 ± 2.5%
[2]; [7]
  inhibition at 2 µM: 50 ± 0.8%
[3]
  change in growth condition and morphology of cultured cells: no change

## EDTAPEDKMQ [Variant D]
[1]; [6]
  inhibition at 7 µM: -12%
